According to ChEMBL document CHEMBL1141621, “Constraining the amide bond in N-sulfonylated dipeptide VLA-4 antagonists” (Bioorg Med Chem Lett, 2008):

Target: T1, Integrin alpha-4 (Homo sapiens, UniProt P13612)
T1 sequence (P13612 whole entry): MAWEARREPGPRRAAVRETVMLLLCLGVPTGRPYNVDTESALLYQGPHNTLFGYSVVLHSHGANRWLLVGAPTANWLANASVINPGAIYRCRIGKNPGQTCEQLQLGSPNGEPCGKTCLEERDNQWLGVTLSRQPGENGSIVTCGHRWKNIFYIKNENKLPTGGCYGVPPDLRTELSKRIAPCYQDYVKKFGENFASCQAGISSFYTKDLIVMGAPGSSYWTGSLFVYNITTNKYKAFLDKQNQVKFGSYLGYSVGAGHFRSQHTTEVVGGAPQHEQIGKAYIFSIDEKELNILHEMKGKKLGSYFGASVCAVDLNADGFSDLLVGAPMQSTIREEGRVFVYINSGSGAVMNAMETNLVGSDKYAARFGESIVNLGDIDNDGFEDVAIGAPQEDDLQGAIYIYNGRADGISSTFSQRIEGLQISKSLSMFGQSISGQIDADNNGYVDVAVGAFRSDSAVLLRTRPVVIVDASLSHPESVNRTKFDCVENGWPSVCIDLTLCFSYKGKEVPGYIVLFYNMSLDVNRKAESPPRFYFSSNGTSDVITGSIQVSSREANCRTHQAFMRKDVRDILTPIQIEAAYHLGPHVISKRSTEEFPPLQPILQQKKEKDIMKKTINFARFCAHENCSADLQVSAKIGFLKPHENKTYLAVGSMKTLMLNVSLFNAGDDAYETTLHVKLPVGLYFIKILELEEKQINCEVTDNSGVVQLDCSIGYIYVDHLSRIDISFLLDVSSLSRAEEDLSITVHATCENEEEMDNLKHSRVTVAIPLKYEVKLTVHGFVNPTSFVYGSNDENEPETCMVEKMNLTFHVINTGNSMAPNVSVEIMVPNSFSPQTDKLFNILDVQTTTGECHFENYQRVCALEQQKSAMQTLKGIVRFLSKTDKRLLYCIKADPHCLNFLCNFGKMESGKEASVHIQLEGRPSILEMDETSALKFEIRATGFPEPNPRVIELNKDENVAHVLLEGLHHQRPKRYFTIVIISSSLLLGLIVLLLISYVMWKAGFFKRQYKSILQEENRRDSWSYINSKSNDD
Test: Displacement of [125I]VCAMIg from VLA4 expressed in Jurkat cells
Format: cell-based

`O=C(O)c1nc(CN(C2CCCCC2)S(=O)(=O)c2cc(Cl)cc(Cl)c2)[nH]c1Cc1ccc(-c2ccccc2)cc1` and `O=C(O)c1[nH]c(CN(C2CCCCC2)S(=O)(=O)c2cc(Cl)cc(Cl)c2)nc1Cc1ccc2ccccc2c1` are within 1.5-fold of each other in IC50: 237 nM for the first, 285 nM for the second.

First: CC(C)C(c1nc(Cc2ccc3ccccc3c2)c(C(=O)O)[nH]1)N(C)S(=O)(=O)c1cc(Cl)cc(Cl)c1 (stereo not given)
Second: COc1ccccc1-c1ccc(C[C@H](NC(=O)[C@@H]2CCCN2S(=O)(=O)c2cc(Cl)cc(Cl)c2)C(=O)O)cc1
The IC50 of the first is 4000-fold higher: 2540 nM for the first, 0.64 nM for the second. The second is the more potent here.

First: O=C(O)C(Cc1ccccc1)N1C[C@@H]2CCN(S(=O)(=O)c3cc(Cl)cc(Cl)c3)[C@@H]2C1=O (stereo not given in full)
Second: O=C(O)[C@H](Cc1ccccc1)NC(=O)[C@@H]1CCCN1S(=O)(=O)c1cc(Cl)cc(Cl)c1
The IC50 of the first is 1500-fold higher: 2100 nM for the first, 1.4 nM for the second. The second is the more potent here.

Target: Integrin alpha-4 (Homo sapiens) (UniProt P13612)
Test: Displacement of [125I]VCAMIg from VLA4 expressed in Jurkat cells at 100 uM
Format: cell-based

Going from `O=C(O)c1[nH]c(C2CCCN2S(=O)(=O)c2cc(Cl)cc(Cl)c2)nc1-c1ccc2ccccc2c1` (stereo not given) to `O=C(O)c1[nH]c(C2CCCN2S(=O)(=O)c2cc(Cl)cc(Cl)c2)nc1Cc1ccc2ccccc2c1` (stereo not given), the inhibition rises from 8% to 30%.

Going from `O=C(O)c1[nH]c(CN(C2CCCCC2)S(=O)(=O)c2cc(Cl)cc(Cl)c2)nc1-c1ccc(-c2ccccc2)cc1` to `O=C(O)c1nc(C2CCCN2S(=O)(=O)c2cc(Cl)cc(Cl)c2)sc1-c1ccc2ccccc2c1` (stereo not given), the inhibition falls from 45% to 19%.
